These results are taken from patent US8383673B2, “Nitridoosmium(VI) complexes for treatment of cancer” (priority 2010, dated 2013).

For data set [1], the system named is HeLa cells. Description: MTT assay of Compound 8 with and without cisplatin. It counts as cell-based, human. The following applies: for pIC50: MTT, 3 days incubation. How it is done:
Compound 8 was tested in the MTT assay to determine its effects with and without cisplatin (see FIG. 1). Assays of cytotoxicity were conducted in 96-well, flat-bottomed microtitre plates. The supplemented culture medium (MEM, 40 μL) with HeLa cells (1×10^5 cells per mL) was added to the wells. Compound 8 was dissolved in the culture medium with 0.5% DMSO with concentrations ranged from 5 μM to 100 μM, and aliquots (10 μL) of the solutions were subsequently added to a set of wells containing the HeLa cells. To examine the synergistic effect of cisplatin, cisplatin was dissolved in the culture medium in order to prepare solutions with concentrations of 0, 0.2, 2 and 6 μM. Aliquots of the cisplatin solutions (50 μL) were added to different sets of the wells containing compound 8 and the HeLa cells. Cells for control experiments were treated with supplemented media with 0.5% DMSO (100 μL). The microtitre plates were incubated at 37° C. in a humidified atmosphere of 5% CO2/95% air for a further 3 days. Assessment of cytotoxicity was carried out by using a modified method of the Mosmann-based 3-(4,5-dimethylthiazol-2-yl)-2,5-diphenyltetrazolium bromide (MTT) assay [T. Mosmann, J. Immunol. Methods 1983, 65, 55]. At the end of the incubation period, MTT solution (10 μL, Cell Proliferation Kit I, Roche) was added into each well and the cultures were incubated further for 4 h at 37° C. in a humidified atmosphere of 5% CO2/95% air. A solubilizing solution (100 μL) was added into wells to lyse the cells and to solubilize the formed formazan complex. The microtitre plates were maintained in a dark, humidified chamber overnight. The formation of formazan was measured by using a microtitre plate reader at 550 nm and the percentages of cell survival were determined. The cytotoxicity was evaluated based on the percentage cell survival in a dose-dependent manner relative to the control.

The subject of data set [2] is human cervix epitheloid carcinoma (HeLa) cell line. Description: Microculture Tetrazolium Test (MTT assay), cytotoxicity in HeLa cell line. It counts as cell-based. As to the method: The cytotoxicity of the complexes was tested by using human cervix epitheloid carcinoma (HeLa) cell line. In this respect the following method was selected.
The antiproliferation activity of these nitridoosmium compounds was examined on human tumor cell lines in the Microculture Tetrazolium Test (MTT assay) with continuous active substance exposition (24 h for compound 1-7; 48 h for compound 8-11). In this regard, adherent monolayer cultures of HeLa cell line were used.
Culture conditions: The cells were kept in 10 cm^2 culture plates at 37° C. and moist atmosphere (5% CO2). Dulbecco's Modified Eagle's Medium (DMEM) was used as culture medium, with 1% antibiotic-antimycotic and 10% fetal bovine serum.
Test execution: Cell were harvested from culture plates by trypsinization and seeded in 100 μL aliquots in complete culture medium into 96-well microculture plates. Cell density of about 4800 cells/well was chosen in order to ensure exponential growth throughout drug exposure. Cells were allowed to settle for 24 h, followed by the addition of dilutions of the test compounds, which were dissolved in DMSO, in 100 μL/well complete culture medium (<1% DMSO) and incubation for 24 h (compound 1-7) or 48 h (compound 8-11). At the end of exposure, drug solutions were replaced by 100 μL/well DMEM medium with 10% MTT solution in phosphate-buffered saline (5 mg/ml PBS). After incubation for 1 h at 37° C., medium was removed, and the reduced formazan product formed by the metabolic activity of vital cells was dissolved in 100 μL DMSO per well. Optical densities at a wavelength of 570 nm were measured with a microplate reader. The quantity of vital cells was expressed in terms of T/C values by comparison to untreated control microcultures, and IC50 values were calculated from concentration-effect curves by logarithmic interpolation. Evaluation is based on means from at least three independent experiments, each comprising four replicates per concentration level.
(In general: Formazan colour is commonly taken as a measure of viable cells.)

Data set [3] concerns human non-small cell lung cancer cells NCI-H460. The following applies: for tumor weight: twice a week, eight injections, end of study (30 days), Mean ± SD; for inhibition rate (%): tumor growth inhibition by tumor weight vs negative group. As to the method:
In vitro cultured human non-small cell lung cancer cells NCI-H460 (from ATCC) were inoculated in nude mice (SPF grade BALB/c-nu male nude mice were purchased from Medical Laboratory Animal Center, Guangdong Province) subcutaneously. The in vivo anti-cancer properties of Os1 (Compound 8) and Os2 (Compound 1) given by intraperitoneal injection were examined by measuring the tumor nodule size of the nude mice.
Each nude mouse was inoculated subcutaneously with 0.2 mL of 7.5×10^6 cells/mL of NCI-H460 cells suspended in culture medium.
Experimental Procedure: 16-18 g male BALB/c-nu nude mice were inoculated subcutaneously 0.2 mL of the NCI-H460 cell suspension (1.5×10^6 cells/rats). The day after inoculation (administration day 1), the nude mice were randomly divided into eight groups and were grouped as follows:
1) positive group (cyclophosphamide 30.0 mg/kg, intraperitoneal injection)
2) negative group (20% PET, intraperitoneal injection)
3) Os1 groups (three treatment groups: 10, 3, 1 mg/kg, intraperitoneal injection)
4) Os2 groups (three treatment groups: 10, 3, 1 mg/kg, intraperitoneal injection)
Mice in each group were received treatment twice a week, with a total number of eight injections. Tumor sizes were measured every 3 days. The treated mice were sacrificed at the end of the study period (30 days) with anatomical separation of tumor nodules. The tumors were weighed and photographed.
The inhibition rate of tumor growth was determined using the following formula: Tumor growth inhibition rate (%)=(1−mean tumor weight of the treatment/mean tumor weight of the negative group)×100%. Tumor volume=longest dimension (mm)×[shortest dimension of the tumor (mm)]^2/2. All measurements were expressed in Mean±SD, using SPSS 10.0 for statistical analysis.

The pIC50 is −log10 of the IC50, conventionally taken in molar units.

pIC50: −log10 of the molar value. Read-outs that look alike come from different tables or passages of the source.

`N.N.[Cl][Pt][Cl]` [Cisplatin, cisplatin, reference compound]: in data set [1] (single agent), the pIC50 was 5.12.

For `Cc1cc(C)[nH]n1.Cc1cc(C)[nH]n1.[N]#[Os]([Cl])([Cl])[Cl]` [Compound 10, trans-[Os^VI(N)(3,5-dimethylpyrazole)2Cl3]], the pIC50 in data set [2] (48 h exposure (compound 8-11)) is more than 4.00.

`Cc1ccn[nH]1.Cc1ccn[nH]1.[N]#[Os]([Cl])([Cl])[Cl]` [Compound 11, trans-[Os^VI(N)(5-methylpyrazole)2Cl3]] gave a pIC50 in data set [2] (48 h exposure (compound 8-11)) of more than 4.00.

As for `O=P1(N(CCCl)CCCl)NCCCO1` (centres unmarked) [positive control, cyclophosphamide, reference compound], the “Tumor volume/mm^3” value in data set [3] (30 mg/kg i.p., day 14) is listed as 168.16 mm^3; in data set [3] (30 mg/kg i.p., day 18), 227.03 mm^3; in data set [3] (30 mg/kg i.p., day 22), 318.64 mm^3; in data set [3] (30 mg/kg i.p., day 26), 378.31 mm^3; in data set [3] (30 mg/kg i.p., day 30), 778.84 mm^3. The “tumor weight” value in data set [3] (30.0 mg/kg i.p.) came out at 0.6095 ± 0.5477 g. Also, the “inhibition rate (%)” value in data set [3] (30.0 mg/kg i.p.) was 74.04%.

With “[Os^VI(N)(5-Brsalpa)(OH2)Cl] [Compound 3]”, the negative-log IC50 (pIC50) in data set [2] (24 h exposure (compound 1-7)) is more than 4.60.

In turn, “[Os^VI(N)(5-Clsalpa)(OH2)Cl] [Compound 2]” showed a negative logarithm of the IC50 (pIC50) in data set [2] (24 h exposure (compound 1-7)) of more than 4.60.

As to “[Os^VI(N)(5-MeOsalpa)(OH2)Cl] [Compound 5]”, in data set [2] (24 h exposure (compound 1-7)), the negative logarithm of the IC50 (pIC50) is more than 4.60.

“[Os^VI(N)(5-Mesalpa)(OH2)Cl] [Compound 4]” showed a pIC50 in data set [2] (24 h exposure (compound 1-7)) of more than 4.60.

For “[Os^VI(N)(5-NO2salpa)(OH2)Cl] [Compound 6]”, the pIC50 in data set [2] (24 h exposure (compound 1-7)) was more than 4.00.

Regarding [Os^VI(N)(pyrazole)2Cl3] [Compound 8], the “Tumor volume/mm^3” value in data set [3] (1 mg/kg i.p., day 14) was found to be 288.12 mm^3; in data set [3] (1 mg/kg i.p., day 18), 518.99 mm^3; in data set [3] (1 mg/kg i.p., day 22) it was 801.59 mm^3; in data set [3] (1 mg/kg i.p., day 26), 1319.35 mm^3; in data set [3] (1 mg/kg i.p., day 30) it was 1569.69 mm^3; in data set [3] (3 mg/kg i.p., day 14), 482.89 mm^3. The “Tumor volume/mm^3” value in data set [3] (3 mg/kg i.p., day 18) was 1043.37 mm^3; in data set [3] (3 mg/kg i.p., day 22), 1140.42 mm^3; in data set [3] (3 mg/kg i.p., day 26) it was 1537.35 mm^3; in data set [3] (3 mg/kg i.p., day 30), 2262.38 mm^3; in data set [3] (10 mg/kg i.p., day 14) it was 534.98 mm^3; in data set [3] (10 mg/kg i.p., day 18) it was 901.64 mm^3. In addition, the “Tumor volume/mm^3” value in data set [3] (10 mg/kg i.p., day 22) turned out to be 1422.37 mm^3; in data set [3] (10 mg/kg i.p., day 26), 2004.80 mm^3; in data set [3] (10 mg/kg i.p., day 30), 2511.59 mm^3. For the same molecule, the “tumor weight” value in data set [3] (1 mg/kg i.p.) worked out at 1.7206 ± 0.4289 g; in data set [3] (3 mg/kg i.p.), 2.0631 ± 1.1693 g; in data set [3] (10 mg/kg i.p.), 2.7711 ± 1.0732 g. Moreover, the “inhibition rate (%)” value in data set [3] (1 mg/kg i.p.) is 26.73%; in data set [3] (3 mg/kg i.p.), 12.14%; in data set [3] (10 mg/kg i.p.), −18.01%. Also, in data set [1], the “effectiveness in the MTT assay compared with cisplatin” value is “more effective than cisplatin”. Moreover, the pIC50 was 5.42 in data set [1] (single agent); 5.38 in data set [1] (with cisplatin 0.1 μM); 5.47 in data set [1] (with cisplatin 1.0 μM); 5.33 in data set [1] (with cisplatin 3.0 μM); more than 4.60 in data set [2] (48 h exposure (compound 8-11)). For the same molecule, the “synergistic effect of cisplatin administered with the compound” value in data set [1] (cisplatin 0.1-3.0 μM) is “does not provide any synergistic effect”.

Take [Os^VI(N)(salpa)(OH2)Cl] [Compound 1]: the “Tumor volume/mm^3” value in data set [3] (1 mg/kg i.p., day 14) came to 380.21 mm^3; in data set [3] (1 mg/kg i.p., day 18) it was 710.06 mm^3; in data set [3] (1 mg/kg i.p., day 22), 726.71 mm^3; in data set [3] (1 mg/kg i.p., day 26), 1365.02 mm^3; in data set [3] (1 mg/kg i.p., day 30), 1110.38 mm^3; in data set [3] (3 mg/kg i.p., day 14), 420.80 mm^3. For the same molecule, the “Tumor volume/mm^3” value in data set [3] (3 mg/kg i.p., day 18) is 500.45 mm^3; in data set [3] (3 mg/kg i.p., day 22), 1011.29 mm^3; in data set [3] (3 mg/kg i.p., day 26), 1032.38 mm^3; in data set [3] (3 mg/kg i.p., day 30), 1390.62 mm^3; in data set [3] (10 mg/kg i.p., day 14), 507.33 mm^3; in data set [3] (10 mg/kg i.p., day 18), 671.87 mm^3. Besides, the “Tumor volume/mm^3” value in data set [3] (10 mg/kg i.p., day 22) came to 1342.17 mm^3; in data set [3] (10 mg/kg i.p., day 26), 1601.47 mm^3; in data set [3] (10 mg/kg i.p., day 30), 2188.17 mm^3. The “tumor weight” value in data set [3] (1 mg/kg i.p.) is on record as 1.2164 ± 0.6547 g; in data set [3] (3 mg/kg i.p.), 1.3542 ± 0.5337 g; in data set [3] (10 mg/kg i.p.), 2.1535 ± 1.4884 g. In addition, the “deaths of treated mice” value in data set [3] (high-dose group (10 mg/kg i.p.)) is “one treated mouse died at day 7 and one died at day 19”; in data set [3] (middle dose group (3 mg/kg i.p.)), “one treated mouse died at day 23 and one died at day 26”. In addition, the “inhibition rate (%)” value amounted to 48.20% in data set [3] (1 mg/kg i.p.), 42.33% in data set [3] (3 mg/kg i.p.) and 8.29% in data set [3] (10 mg/kg i.p.). Also, the negative-log IC50 (pIC50) in data set [2] (24 h exposure (compound 1-7)) was more than 4.60.

Take “tran-[Os^VI(N)(indazole)2Cl3] [Compound 9]”: the negative-log IC50 (pIC50) in data set [2] (48 h exposure (compound 8-11)) is more than 4.60.
